# Results reported in paper PMC8580996, “2-Oxoglutarate derivatives can selectively enhance or inhibit the activity of human oxygenases” (Nature Communications, 2021).
# Several values for one entry are separate records, joined by “and”; a condition that tells them apart may be missing. Equal values may be shown once.
# Key:
# FIH [1] = target: T1, FIH (Homo sapiens, UniProt Q9NWT6); assay: Competition assay in a single reaction vessel, FIH-catalyzed hydroxylation (SPE-MS); type: biochemical
# Protocol: (§1) Mean of three independent runs (n = 3; mean ± SD). […] Cosubstrates: a 20 μM 2OG; b 20 μM 2OG; c 20 μM 1; d 20 μM 12; e 20 μM 12 and 100 μM 2OG; f 100 μM 14. Source data are provided as a Source Data file.
# (§2) Mean of three independent runs (n = 3; mean ± SD). […] Source data are provided as a Source Data file.
# (§3) Peptide turnover was monitored by SPE-MS using the same instrument configuration (with the exception that the peptides were eluted from the SPE cartridge with 0.1%v/v aqueous formic acid in 80/20 v/v acetonitrile/water) as described above.
# (§4) FIH and AspH-catalyzed peptide hydroxylations were analyzed simultaneously using SPE-MS as described in the
# (§5) Methods section; competition experiments were performed in the same reaction vessel using equimolar 2OG
# (§6) oxygenase and substrate concentrations. […]
# (§7) Source data are provided as a Source Data file.
# (§8) FIH and AspH-catalyzed peptide hydroxylations were analyzed simultaneously using SPE-
# (§9) MS as described in the Methods section; competition experiments were performed in the same reaction vessel
# (§10) using equimolar 2OG oxygenase and substrate concentrations. […]
# (§11) 2OG, 100 μM 14. Source data are provided as a Source Data file.
# AspH [2] = target: T2, AspH (Homo sapiens, UniProt Q12797); assay: Competition assay in a single reaction vessel, AspH-catalyzed hydroxylation (SPE-MS); type: biochemical; details: for substrate hydroxylation (% conversion): AspH
# T2 construct: the tetratricopeptide repeat domain (His6-AspH315-758), was produced and purified as previously reported; made in house
# T2 sequence (Q12797 315-758): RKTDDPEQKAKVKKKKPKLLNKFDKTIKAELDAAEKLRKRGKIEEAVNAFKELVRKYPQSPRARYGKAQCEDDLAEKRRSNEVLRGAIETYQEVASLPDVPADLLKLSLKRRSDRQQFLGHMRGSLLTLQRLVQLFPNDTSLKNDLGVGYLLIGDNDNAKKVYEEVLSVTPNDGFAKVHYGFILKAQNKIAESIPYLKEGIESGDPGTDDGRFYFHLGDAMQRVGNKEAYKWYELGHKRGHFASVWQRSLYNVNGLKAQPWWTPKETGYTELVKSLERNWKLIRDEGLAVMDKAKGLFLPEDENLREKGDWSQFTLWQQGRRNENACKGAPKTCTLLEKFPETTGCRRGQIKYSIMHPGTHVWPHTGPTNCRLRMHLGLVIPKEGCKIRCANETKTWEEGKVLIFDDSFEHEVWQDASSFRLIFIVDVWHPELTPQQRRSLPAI
# Protocol: as §1, §2, §3, §4, §5, §6, §7, §8, §9, §10, §11
# FIH [3] = target: T1, FIH; assay: Mechanism of FIH inhibition: 2OG kinetics at variable concentrations of 18 (Ki, Cornish-Bowden plot); type: biochemical; details: absence of 18, HIF-1α788-822
# Protocol: Supplementary Figure 28. Determination of the FIH Kapp for 4-(3-phenylprop-1-yl)-2OG (18) (continues on […]
# the following page). […]
# (LAA), and 20 μM ammonium iron(II) sulfate hexahydrate (FAS, (NH4)2Fe(SO4)2·6H2O) in buffer (50 mM Tris, 50 mM NaCl, pH 7.5, 20° C). Measurement times were normalized to the first sample injection analyzed after the […]
# are shown as the mean of independent triplicates (n = 3; mean ± standard deviation, SD). […]
# 2OG concentrations, determined in the presence of 0.5 μM 18; (e) hydroxylation rates used for the kinetic analysis; […]
# AspH [4] = target: T2, AspH; set-up: method as in PMID 34163896; details: hFX-CP101–119 substrate, 330 μM 2OG or 2OG derivative, t = 15 min; cited from earlier work
# T1 sequence (Q9NWT6 whole entry): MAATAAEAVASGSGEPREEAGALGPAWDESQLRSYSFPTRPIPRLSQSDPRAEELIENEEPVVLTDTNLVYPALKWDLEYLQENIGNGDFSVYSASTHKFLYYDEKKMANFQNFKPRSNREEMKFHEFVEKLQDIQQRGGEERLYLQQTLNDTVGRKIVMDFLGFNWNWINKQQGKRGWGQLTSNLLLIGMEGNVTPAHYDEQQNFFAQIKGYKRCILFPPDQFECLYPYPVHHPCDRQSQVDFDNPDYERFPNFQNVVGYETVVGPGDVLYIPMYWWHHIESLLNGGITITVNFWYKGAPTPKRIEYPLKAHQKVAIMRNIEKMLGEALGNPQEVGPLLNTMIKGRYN
compound,measurement,setting,value
"O=C(O)CCC(=O)C(=O)O [2OG, 2-Oxoglutarate]",substrate hydroxylation (% conversion),"FIH [1]; Fig 2a, 20 μM 2OG, CA1-20, 0 min",14.1515 and 16.7791 and 11.5447
same,substrate hydroxylation (% conversion),"FIH [1]; Fig 2a, 20 μM 2OG, CA1-20, 0.703167 min",47.9481 and 47.8258 and 38.5441
same,substrate hydroxylation (% conversion),"FIH [1]; Fig 2a, 20 μM 2OG, CA1-20, 2.10933 min",78.9866 and 77.8293 and 70.1307
same,substrate hydroxylation (% conversion),"FIH [1]; Fig 2a, 20 μM 2OG, CA1-20, 2.8135 min",85.5974 and 84.4447 and 78.5645
same,substrate hydroxylation (% conversion),"FIH [1]; Fig 2a, 20 μM 2OG, CA1-20, 3.51633 min",89.6698 and 89.0396 and 84.1833
same,substrate hydroxylation (% conversion),"FIH [1]; Fig 2a, 20 μM 2OG, CA1-20, 4.22 min",92.631 and 91.777 and 88.07
same,substrate hydroxylation (% conversion),"FIH [1]; Fig 2a, 20 μM 2OG, CA1-20, 4.92317 min",94.369 and 93.7454 and 90.6935
same,substrate hydroxylation (% conversion),"FIH [1]; Fig 2a, 20 μM 2OG, CA1-20, 5.62833 min",95.7579 and 95.0911 and 92.7125
same,substrate hydroxylation (% conversion),"FIH [1]; Fig 2a, 20 μM 2OG, CA1-20, 6.33133 min",97.057 and 96.0828 and 94.1188
same,substrate hydroxylation (% conversion),"FIH [1]; Fig 2a, 20 μM 2OG, CA1-20, 7.03583 min",97.7828 and 96.6689 and 95.1866
same,substrate hydroxylation (% conversion),"FIH [1]; Fig 2a, 20 μM 2OG, CA1-20, 7.73917 min",98.8257 and 97.1902 and 95.7428
same,substrate hydroxylation (% conversion),"FIH [1]; Fig 2a, 20 μM 2OG, CA1-20, 8.444 min",99.4037 and 97.3768 and 96.3319
same,substrate hydroxylation (% conversion),"FIH [1]; Fig 2a, 20 μM 2OG, CA1-20, 9.1485 min",99.7225 and 97.4249 and 96.6951
same,substrate hydroxylation (% conversion),"FIH [1]; Fig 2a, 20 μM 2OG, CA1-20, 9.853 min",99.5637 and 97.3528 and 97.1366
same,substrate hydroxylation (% conversion),"FIH [1]; Fig 2a, 20 μM 2OG, CA1-20, 10.558 min",100 and 97.2891 and 96.8671
same,substrate hydroxylation (% conversion),"FIH [1]; Fig 2a, 20 μM 2OG, CA1-20, 11.2623 min",100 and 94.1661
same,substrate hydroxylation (% conversion),"FIH [1]; Fig 2a, 20 μM 2OG, HIF-1a788-822, 0.703167 min",6.1581 and 8.558 and 6.1761
same,substrate hydroxylation (% conversion),"FIH [1]; Fig 2a, 20 μM 2OG, HIF-1a788-822, 2.10933 min",16.8685 and 19.2149 and 14.7272
same,substrate hydroxylation (% conversion),"FIH [1]; Fig 2a, 20 μM 2OG, HIF-1a788-822, 2.8135 min",22.0351 and 24.2966 and 18.9489
same,substrate hydroxylation (% conversion),"FIH [1]; Fig 2a, 20 μM 2OG, HIF-1a788-822, 3.51633 min",26.9176 and 28.8009 and 23.0891
same,substrate hydroxylation (% conversion),"FIH [1]; Fig 2a, 20 μM 2OG, HIF-1a788-822, 4.22 min",30.085 and 33.3713 and 26.7919
same,substrate hydroxylation (% conversion),"FIH [1]; Fig 2a, 20 μM 2OG, HIF-1a788-822, 4.92317 min",34.7093 and 37.5052 and 30.4684
same,substrate hydroxylation (% conversion),"FIH [1]; Fig 2a, 20 μM 2OG, HIF-1a788-822, 5.62833 min",37.941 and 41.581 and 34.0768
same,substrate hydroxylation (% conversion),"FIH [1]; Fig 2a, 20 μM 2OG, HIF-1a788-822, 6.33133 min",40.9748 and 45.5421 and 37.689
same,substrate hydroxylation (% conversion),"FIH [1]; Fig 2a, 20 μM 2OG, HIF-1a788-822, 7.03583 min",44.2421 and 48.7776 and 41.0727
same,substrate hydroxylation (% conversion),"FIH [1]; Fig 2a, 20 μM 2OG, HIF-1a788-822, 7.73917 min",46.5287 and 52.1147 and 44.2887
same,substrate hydroxylation (% conversion),"FIH [1]; Fig 2a, 20 μM 2OG, HIF-1a788-822, 8.444 min",50.2071 and 55.1688 and 46.8395
same,substrate hydroxylation (% conversion),"FIH [1]; Fig 2a, 20 μM 2OG, HIF-1a788-822, 9.1485 min",52.5573 and 57.8623 and 50.003
same,substrate hydroxylation (% conversion),"FIH [1]; Fig 2a, 20 μM 2OG, HIF-1a788-822, 9.853 min",55.5664 and 60.5077 and 52.8227
same,substrate hydroxylation (% conversion),"FIH [1]; Fig 2a, 20 μM 2OG, HIF-1a788-822, 10.558 min",57.4116 and 62.9095 and 55.0617
same,substrate hydroxylation (% conversion),"FIH [1]; Fig 2a, 20 μM 2OG, HIF-1a788-822, 11.2623 min",59.0832 and 64.3072 and 56.3348
same,conversion of CA1–20,"FIH [1]; Fig 2a, 20 μM 2OG, both FIH substrates in one vessel, after 5 min",> 90%
same,conversion of HIF-1α788–822,"FIH [1]; Fig 2a, 20 μM 2OG, both FIH substrates in one vessel, after 12 min",~ 60%
same,substrate hydroxylation (% conversion),"FIH [1]; Fig 2b, 20 μM 2OG, FIH, 1.19933 min",58.5759 and 53.8983
same,FIH-catalyzed CA1–20 hydroxylation,"FIH [1]; Fig 2b, 20 μM 2OG, after 4 min",> 80%
same,FIH-catalyzed substrate turnover,"FIH [1]; Fig 4a, 0.5 mM 2OG, absence of 13, after 4 min",~ 80%
same,substrate hydroxylation (% conversion),"AspH [2]; Fig 2b, 20 μM 2OG, 1.4395 min",100
same,substrate hydroxylation (% conversion),"AspH [2]; Fig 2b, 20 μM 2OG, 1.6805 min",100
same,substrate hydroxylation (% conversion),"AspH [2]; Fig 2b, 20 μM 2OG, 1.9205 min",100
same,substrate hydroxylation (% conversion),"AspH [2]; Fig 2b, 20 μM 2OG, 2.40217 min",100
same,substrate hydroxylation (% conversion),"AspH [2]; Fig 2b, 20 μM 2OG, 2.64367 min",100
same,substrate hydroxylation (% conversion),"AspH [2]; Fig 2b, 20 μM 2OG, 2.88417 min",100
same,substrate hydroxylation (% conversion),"AspH [2]; Fig 2b, 20 μM 2OG, 3.1255 min",100
same,substrate hydroxylation (% conversion),"AspH [2]; Fig 2b, 20 μM 2OG, 3.3665 min",100
same,substrate hydroxylation (% conversion),"AspH [2]; Fig 2b, 20 μM 2OG, 3.60917 min",100
same,AspH-catalyzed hFX-EGFD1_86–124-4Ser hydroxylation,"AspH [2]; Fig 2b, 20 μM 2OG, within about 1 min",> 95%
same,time to apparent completion of AspH substrate hydroxylation,"AspH [2]; Fig 4a, 0.5 mM 2OG, absence of 13",~ 1 min
same,AspH conversion,"AspH [2]; Supplementary Fig 8a, 20 μM 2OG, after 2 min",> 95%
same,FIH Kmapp for 2OG,FIH [3],0.74 ± 0.07 µM
same,FIH vmaxapp for 2OG,FIH [3],5.9 ± 0.1 10-3 μM·s-1
"O=C(O)C(=O)C1CCC(C(=O)O)C1 (stereo not drawn) [compound 22, 3-(carboxycarbonyl)cyclopentane-1-carboxylic acid]","AspH activity, %-substrate conversion",AspH [4],~15%
